{"source": "patent US9498476B2", "about": "“Crystalline form of 6-[(4S)-2-methyl-4-(2-naphthyl)-1,2,3,4-tetrahydroisoquinolin-7-yl]pyridazin-3-amine” (Bristol-Myers Squibb Company, priority 2008, dated 2016)", "format_in_all_cases": "physicochemical", "key": {"[1]": {"test": "Distribution coefficient (Log Do/b)", "conditions": "pH 6.5"}, "[2]": {"test": "pH-Solubility profile (aqueous solubility)"}, "[3]": {"test": "Solubility profile (USP definition) in solvents"}}}
{"compound": "CN1Cc2cc(-c3ccc(N)nn3)ccc2[C@H](c2ccc3ccccc3c2)C1", "note": "[Form N-1, 6-[(4S)-1,2,3,4-tetrahydro-2-methyl-4-(2-naphthalenyl)-7-isoquinolinyl]-3-pyridazinamine]", "values": [{"measurement": "Distribution coefficient Log Do/b", "setting": "[1]", "value": 3.10}, {"measurement": "Aqueous solubility (in words)", "setting": "[2]", "value": "high aqueous solubility"}, {"measurement": "Solubility profile (USP definition)", "setting": "[3]; acetone", "value": "slightly soluble: isopropanol, acetone, ethanol, methanol,"}, {"measurement": "Solubility profile (USP definition)", "setting": "[3]; acetonitrile", "value": "very slightly soluble: acetonitrile, ethyl acetate,"}, {"measurement": "Solubility profile (USP definition)", "setting": "[3]; dichloromethane", "value": "slightly soluble: isopropanol, acetone, ethanol, methanol,"}, {"measurement": "Solubility profile (USP definition)", "setting": "[3]; ethanol", "value": "slightly soluble: isopropanol, acetone, ethanol, methanol,"}, {"measurement": "Solubility profile (USP definition)", "setting": "[3]; ethyl acetate", "value": "very slightly soluble: acetonitrile, ethyl acetate,"}, {"measurement": "Solubility profile (USP definition)", "setting": "[3]; isopropanol", "value": "slightly soluble: isopropanol, acetone, ethanol, methanol,"}, {"measurement": "Solubility profile (USP definition)", "setting": "[3]; methanol", "value": "slightly soluble: isopropanol, acetone, ethanol, methanol,"}, {"measurement": "Solubility profile (USP definition)", "setting": "[3]; n-butanol", "value": "very slightly soluble: acetonitrile, ethyl acetate,"}, {"measurement": "Solubility profile (USP definition)", "setting": "[3]; propylene glycol", "value": "slightly soluble: isopropanol, acetone, ethanol, methanol,"}]}
